According to patent publication US20240050428A1 (Cullgen (Shanghai), Inc., priority 2020, published 2024):
pIC50: −log10 of the molar value. Where two headings read alike, the source gives them in different places.

Experiments:
MV4;11 cells = test: Cell viability assay (CellTiter-Glo) in MV4;11 cells, alone or with gilteritinib; format: cell-based; conditions: Homo sapiens, MV4-11, 72 h, MV4;11 cells, three days, CellTiter-Glo, read-out: MV4
MOLM-13 cells = test: Cell viability assay (CellTiter-Glo) in MOLM-13 cells, alone or with gilteritinib; format: cell-based; conditions: Homo sapiens, MOLM-13, 72 h, MOLM-13 cells, three days, CellTiter-Glo
[1] = compound alone (without gilteritinib), 11 IC50
[2] = with gilteritinib 10 nM, 11 IC50 gilteritinib
[3] = compound alone (without gilteritinib), read-out: MOLM-13 IC50
[4] = with gilteritinib 20 nM, read-out: MOLM-13 IC50 gilteritinib
[5] = compound with gilteritinib 10 nM, 11 IC50 gilteritinib
[6] = compound with gilteritinib 20 nM, read-out: MOLM-13 IC50 gilteritinib

pIC50 (MV4;11 cells; [1])	pIC50 (MV4;11 cells; [2])	pIC50 (MOLM-13 cells; [3])	pIC50 (MOLM-13 cells; [4])	pIC50 (MV4;11 cells; [5])	pIC50 (MOLM-13 cells; [6])	SMILES
7.00 to 8.00	> 8.00	7.00 to 8.00	> 8.00	–	–	O=C1CCC(N2C(=O)c3ccc(NCCC[C@H]4C[C@H](n5cc(-c6cnc7ccccc7n6)c(C(F)F)n5)C4)cc3C2=O)C(=O)N1 (stereo partly drawn) [GS-243, 5-((3-(trans-3-(3-(Difluoromethyl)-4-(quinoxalin-2-yl)-1H-pyrazol-1-yl)cyclobutyl)propyl)amino)-2-(2,6-dioxopiperidin-3-yl)isoindoline-1,3-dione]
6.00 to 7.00	7.00 to 8.00	6.00 to 7.00	7.00 to 8.00	–	–	O=C1CCC(N2C(=O)c3ccc(NC[C@H]4C[C@H](n5cc(-c6cc7[nH]ncc7cn6)c(C6CC6)n5)C4)cc3C2=O)C(=O)N1 (stereo partly drawn) [GS-288, 5-(((trans-3-(3-Cyclopropyl-4-(1H-pyrazolo[4,3-c]pyridin-6-yl)-1H-pyrazol-1-yl)cyclobutyl)methyl)amino)-2-(2,6-dioxopiperidin-3-yl)isoindoline-1,3-dione]
7.00 to 8.00	> 8.00	6.00 to 7.00	> 8.00	–	–	O=C1CCC(N2C(=O)c3ccc(NCCC[C@H]4C[C@H](n5cc(-c6cnc7ccc(OC8CC8)cc7n6)cn5)C4)cc3C2=O)C(=O)N1 (stereo partly drawn) [GS-202, 5-((3-(trans-3-(4-(7-Cyclopropoxyquinoxalin-2-yl)-1H-pyrazol-1-yl)cyclobutyl)propyl)amino)-2-(2,6-dioxopiperidin-3-yl)isoindoline-1,3-dione]
< 6.00	–	< 6.00	–	7.00 to 8.00	7.00 to 8.00	O=C1CCC(N2C(=O)c3ccc(NCCCCCCn4ncc(-c5cnc6ccccc6n5)c4C4CC4)cc3C2=O)C(=O)N1 (centres unmarked) [GS-553, 5-((6-(5-cyclopropyl-4-(quinoxalin-2-yl)-1H-pyrazol-1-yl)hexyl)amino)-2-(2,6-dioxopiperidin-3-yl)isoindoline-1,3-dione]
7.00 to 8.00	–	7.00 to 8.00	–	> 8.00	> 8.00	CN1CCC(c2cccc3nc(-c4cnn([C@H]5C[C@H](CCCNc6ccc7c(c6)C(=O)N(C6CCC(=O)NC6=O)C7=O)C5)c4)cnc23)CC1 (stereo partly drawn) [GS-426, 2-(2,6-dioxopiperidin-3-yl)-5-((3-(trans-3-(4-(5-(1-methylpiperidin-4-yl)quinoxalin-2-yl)-1H-pyrazol-1-yl)cyclobutyl)propyl)amino)isoindoline-1,3-dione]
7.00 to 8.00	–	7.00 to 8.00	–	> 8.00	> 8.00	O=C1CCC(N2C(=O)c3ccc(NCCC[C@H]4C[C@H](n5cc(-c6cnc7cc(C8CCNCC8)ccc7n6)cn5)C4)cc3C2=O)C(=O)N1 (stereo partly drawn) [GS-421, 2-(2,6-dioxopiperidin-3-yl)-5-((3-(trans-3-(4-(6-(piperidin-4-yl)quinoxalin-2-yl)-1H-pyrazol-1-yl)cyclobutyl)propyl)amino)isoindoline-1,3-dione]
7.00 to 8.00	–	6.00 to 7.00	–	7.00 to 8.00	7.00 to 8.00	O=C1CCC(N2C(=O)c3ccc(NCCCCn4cc(-c5cnc6ccccc6n5)c(C5CC5)n4)cc3C2=O)C(=O)N1 (centres unmarked) [GS-450, 5-((4-(3-cyclopropyl-4-(quinoxalin-2-yl)-1H-pyrazol-1-yl)butyl)amino)-2-(2,6-dioxopiperidin-3-yl)isoindoline-1,3-dione]
7.00 to 8.00	> 8.00	6.00 to 7.00	> 8.00	–	–	Cc1ccc(-c2cn([C@H]3C[C@H](CNc4ccc5c(c4)C(=O)N(C4CCC(=O)NC4=O)C5=O)C3)nc2C2CC2)nc1 (stereo partly drawn) [GS-256, 5-(((trans-3-(3-Cyclopropyl-4-(5-methylpyridin-2-yl)-1H-pyrazol-1-yl)cyclobutyl)methyl)amino)-2-(2,6-dioxopiperidin-3-yl)isoindoline-1,3-dione]
< 6.00	< 6.00	< 6.00	< 6.00	–	–	CN(c1ccc2[nH]ccc2n1)C1CCN(CC(=O)NCCNc2ccc3c(c2)C(=O)N(C2CCC(=O)NC2=O)C3=O)CC1 (centres unmarked) [GS-322, N-(2-((2-(2,6-Dioxopiperidin-3-yl)-1,3-dioxoisoindolin-5-yl)amino)ethyl)-2-(4-(methyl(1H-pyrrolo[3,2-b]pyridin-5-yl)amino)piperidin-1-yl)acetamide]
7.00 to 8.00	–	7.00 to 8.00	–	> 8.00	> 8.00	O=C1CCC(N2C(=O)c3ccc(NCCC[C@H]4C[C@H](n5cc(-c6cnc7ccc(NC8COC8)cc7n6)cn5)C4)cc3C2=O)C(=O)N1 (stereo partly drawn) [GS-585, 2-(2,6-Dioxopiperidin-3-yl)-5-((3-(trans-3-(4-(7-(oxetan-3-ylamino)quinoxalin-2-yl)-1H-pyrazol-1-yl)cyclobutyl)propyl)amino)isoindoline-1,3-dione]
6.00 to 7.00	7.00 to 8.00	6.00 to 7.00	7.00 to 8.00	–	–	CNc1cccc(-c2cnn([C@H]3C[C@H](CCCNc4ccc5c(c4)C(=O)N(C4CCC(=O)NC4=O)C5=O)C3)c2)n1 (stereo partly drawn) [GS-251, 2-(2,6-Dioxopiperidin-3-yl)-5-((3-(trans-3-(4-(6-(methylamino)pyridin-2-yl)-1H-pyrazol-1-yl)cyclobutyl)propyl)amino)isoindoline-1,3-dione]
7.00 to 8.00	–	7.00 to 8.00	–	> 8.00	> 8.00	O=C1CCC(N2C(=O)c3ccc(NCCCCCCn4cc(-c5cnc6ccc(N7CCOCC7)cc6n5)cn4)cc3C2=O)C(=O)N1 (centres unmarked) [GS-530, 2-(2,6-Dioxopiperidin-3-yl)-5-((6-(4-(7-morpholinoquinoxalin-2-yl)-1H-pyrazol-1-yl)hexyl)amino)isoindoline-1,3-dione]
6.00 to 7.00	–	< 6.00	–	7.00 to 8.00	< 6.00	O=C1CCC(N2Cc3cc(CNC(=O)C(F)(F)CCC(=O)N4CCC(n5cc(-c6cnc7ccccc7n6)cn5)CC4)ccc3C2=O)C(=O)N1 (centres unmarked) [GS-533, N-((2-(2,6-dioxopiperidin-3-yl)-1-oxoisoindolin-5-yl)methyl)-2,2-difluoro-5-oxo-5-(4-(4-(quinoxalin-2-yl)-1H-pyrazol-1-yl)piperidin-1-yl)pentanamide]
< 6.00	–	< 6.00	–	< 6.00	< 6.00	CN1CCN(c2ccnc(-c3cn([C@H]4C[C@H](CNc5ccc6c(c5)C(=O)N(C5CCC(=O)NC5=O)C6=O)C4)nc3C3CC3)c2)CC1 (stereo partly drawn) [GS-608, 5-(((trans-3-(3-Cyclopropyl-4-(4-(4-methylpiperazin-1-yl)pyridin-2-yl)-1H-pyrazol-1-yl)cyclobutyl)methyl)amino)-2-(2,6-dioxopiperidin-3-yl)isoindoline-1,3-dione]
7.00 to 8.00	> 8.00	7.00 to 8.00	> 8.00	–	–	O=C1CCC(N2C(=O)c3ccc(NCCC[C@H]4C[C@H](n5cc(-c6cnc7ccc(CN8CCOCC8)cc7n6)c(C6CC6)n5)C4)cc3C2=O)C(=O)N1 (stereo partly drawn) [GS-230, 5-((3-(trans-3-(3-Cyclopropyl-4-(7-(morpholinomethyl)quinoxalin-2-yl)-1H-pyrazol-1-yl)cyclobutyl)propyl)amino)-2-(2,6-dioxopiperidin-3-yl)isoindoline-1,3-dione]
6.00 to 7.00	7.00 to 8.00	6.00 to 7.00	7.00 to 8.00	–	–	O=C1CCC(N2C(=O)c3ccc(NC[C@H]4C[C@H](n5cc(-c6cccnc6)c(C6CC6)n5)C4)cc3C2=O)C(=O)N1 (stereo partly drawn) [GS-268, 5-(((trans-3-(3-Cyclopropyl-4-(pyridin-3-yl)-1H-pyrazol-1-yl)cyclobutyl)methyl)amino)-2-(2,6-dioxopiperidin-3-yl)isoindoline-1,3-dione]
< 6.00	< 6.00	< 6.00	6.00 to 7.00	–	–	O=C(CN1CCC(n2cc(-c3cnc4ccccc4n3)cn2)CC1)NCCCNc1ccc2c(c1)C(=O)N(C1CCC(=O)NC1=O)C2=O (centres unmarked) [GS-316, N-(3-((2-(2,6-Dioxopiperidin-3-yl)-1,3-dioxoisoindolin-5-yl)amino)propyl)-2-(4-(4-(quinoxalin-2-yl)-1H-pyrazol-1-yl)piperidin-1-yl)acetamide]
6.00 to 7.00	6.00 to 7.00	< 6.00	7.00 to 8.00	–	–	O=C1CCC(N2C(=O)c3ccc(NCCCCC(=O)N4CCC(n5cc(-c6cnc7ccccc7n6)cn5)CC45CC5)cc3C2=O)C(=O)N1 (centres unmarked) [GS-153, 2-(2,6-Dioxopiperidin-3-yl)-5-((5-oxo-5-(7-(4-(quinoxalin-2-yl)-1H-pyrazol-1-yl)-4-azaspiro[2.5]octan-4-yl)pentyl)amino)isoindoline-1,3-dione]
< 6.00	< 6.00	< 6.00	< 6.00	–	–	CNc1ccnc(-c2cn([C@H]3C[C@H](CNc4ccc5c(c4)C(=O)N(C4CCC(=O)NC4=O)C5=O)C3)nc2C2CC2)c1 (stereo partly drawn) [GS-306, 5-(((trans-3-(3-Cyclopropyl-4-(4-(methylamino)pyridin-2-yl)-1H-pyrazol-1-yl)cyclobutyl)methyl)amino)-2-(2,6-dioxopiperidin-3-yl)isoindoline-1,3-dione]

SMILES	pIC50 (MV4;11 cells; [1])	pIC50 (MV4;11 cells; [2])	pIC50 (MOLM-13 cells; [3])	pIC50 (MOLM-13 cells; [4])	pIC50 (MV4;11 cells; [5])	pIC50 (MOLM-13 cells; [6])
CN1C2CCC1CN(c1ccc3ncc(-c4cnn([C@H]5C[C@H](CCCNc6ccc7c(c6)C(=O)N(C6CCC(=O)NC6=O)C7=O)C5)c4)nc3c1)C2 (stereo partly drawn) [GS-409, 2-(2,6-dioxopiperidin-3-yl)-5-((3-(trans-3-(4-(7-(8-methyl-3,8-diazabicyclo[3.2.1]octan-3-yl)quinoxalin-2-yl)-1H-pyrazol-1-yl)cyclobutyl)propyl)amino)isoindoline-1,3-dione]	7.00 to 8.00	7.00 to 8.00	7.00 to 8.00	> 8.00	–	–
